Results as given in US11083729B2, “Methods of treating cancer with small molecule NF-κB inhibitors” (ImmuneTarget, Inc., priority 2017, dated 2021).

Key:
HCT116 = test: CellTiter-Glo IG50, Example 8, HCT116; format: cell-based; settings: Homo sapiens, HCT-116, HCT116, 72 hours
Procedure: (§1) Various pancreatic, liver, colon, breast, and stomach cancer cell lines were exposed to the NF-κB inhibitors of the present invention, including, for example, IT-839, IT-843, IT-848, and IT-878, and assessed for IG50 in the CellTiter Glo 2.0 assay.
(§2) The cells were cultured in an atmosphere of 37° C., 5% CO2 and 95% humidity. All culture media and FBS were purchased from GIBCO, Hyclone or Sigma, USA. The media used for cell culture is described in the table below.
(§3) The cells were harvested during the logarithmic growth period and counted. Cell concentrations were adjusted to the appropriate number in appropriate medium and 90 μl cell suspensions were added to 96-well plates. When cells were added, the plates were shaken gently to distribute the cells evenly. Cells were incubated at 37° C. and 5% CO2.
(§4) 3× serial dilutions of test compound stock solutions with respective solvents were prepared. The stock solutions were diluted with culture medium to generate 10× working solutions of the test compounds. 10 μl of the 10× test compound solutions were added to each well in triplicate for each concentration. Plates were incubated for 72 hours in a humidified incubator at 37° C. and 5% CO2.
(§5) CellTiter-Glo (CTG) solution was thawed and equilibrated to room temperature. 50 μl of CTG were added to each well and the contents were mixed for 2 minutes on a plate shaker. Cells were incubated for 10 minutes before luminescence signal was recorded using Envision.
(§6) Cell viability was plotted with GraphPad Prism version 5 and the IG50 was calculated for each cell line. The graphical curves were fitted using a nonlinear regression model with a sigmoidal dose response. IG50 is the concentration of test drug where 100×T/C=50 (the optical density of the test well after a 3-day period of exposure to test drug is T; the control optical density is C).

HT-29 = test: CellTiter-Glo IG50, Example 8, HT-29; format: cell-based; settings: Homo sapiens, HT-29, 72 hours
Procedure: as §1, §2, §3, §4, §5, §6

LoVo = test: CellTiter-Glo IG50, Example 8, LoVo; format: cell-based; settings: Homo sapiens, 72 hours
Procedure: as §1, §2, §3, §4, §5, §6

AGS = test: CellTiter-Glo IG50, Example 8, AGS; format: cell-based; settings: Homo sapiens, 72 hours
Procedure: as §1, §2, §3, §4, §5, §6

MKN45 = test: CellTiter-Glo IG50, Example 8, MKN45; format: cell-based; settings: Homo sapiens, MKN-45, MKN45, 72 hours
Procedure: as §1, §2, §3, §4, §5, §6

KATO III = test: CellTiter-Glo IG50, Example 8, KATO III; format: cell-based; settings: Homo sapiens, 72 hours
Procedure: as §1, §2, §3, §4, §5, §6

HepG2 [1] = test: CellTiter-Glo IG50, Example 9 HCC panel, HepG2; format: cell-based; settings: Homo sapiens, HepG2, 72 hours
Procedure: as §3, §4, §5, §6, §2
(§7) Following the cell culture protocol and data analysis methods described in Example 8, the following IG50 results (in μM) were observed: […]

Hep3B [2] = test: CellTiter-Glo IG50, Example 9 HCC panel, Hep3B; format: cell-based; settings: Homo sapiens, 72 hours
Procedure: as §3, §4, §5, §6, §2, §7

PLC/PRF/5 [3] = test: CellTiter-Glo IG50, Example 9 HCC panel, PLC/PRF/5; format: cell-based; settings: Homo sapiens, PLC/PRF/5, 72 hours
Procedure: as §3, §4, §5, §6, §2, §7

HUH7 = test: CellTiter-Glo IG50, Example 9 HCC panel, HUH7; format: cell-based; settings: Homo sapiens, Huh-7, HUH7, 72 hours
Procedure: as §3, §4, §5, §6, §2, §7

JHH5 = test: CellTiter-Glo IG50, Example 9 HCC panel, JHH5; format: cell-based; settings: JHH5, 72 hours
Procedure: as §3, §4, §5, §6, §2, §7

PBMC = test: CellTiter-Glo IG50, Example 9 HCC panel, PBMC; format: cell-based; settings: 72 hours
Procedure: as §3, §4, §5, §6, §2, §7

SNU878 = test: CellTiter-Glo IG50, Example 9 HCC panel, SNU878; format: cell-based; settings: SNU878, 72 hours
Procedure: as §3, §4, §5, §6, §2, §7

Capan-1 = test: CellTiter-Glo IG50, Example 8, Capan-1; format: cell-based; settings: Homo sapiens, Capan-1, 72 hours
Procedure: as §1, §2, §3, §4, §5, §6

PANC-1 = test: CellTiter-Glo IG50, Example 8, PANC-1; format: cell-based; settings: Homo sapiens, PANC-1, 72 hours
Procedure: as §1, §2, §3, §4, §5, §6

MIAPACA-2 = test: CellTiter-Glo IG50, Example 8, MIAPACA-2; format: cell-based; settings: Homo sapiens, MIA PaCa-2, MIAPACA-2, 72 hours
Procedure: as §1, §2, §3, §4, §5, §6

PLC/PRF/5 [4] = test: CellTiter-Glo IG50, Example 8, PLC/PRF/5; format: cell-based; settings: Homo sapiens, PLC/PRF/5, 72 hours
Procedure: as §1, §2, §3, §4, §5, §6

HepG2 [5] = test: CellTiter-Glo IG50, Example 8, HepG2; format: cell-based; settings: Homo sapiens, HepG2, 72 hours
Procedure: as §1, §2, §3, §4, §5, §6

Hep3B [6] = test: CellTiter-Glo IG50, Example 8, Hep3B; format: cell-based; settings: Homo sapiens, 72 hours
Procedure: as §1, §2, §3, §4, §5, §6

MCF-7 = test: CellTiter-Glo IG50, Example 8, MCF-7; format: cell-based; settings: Homo sapiens, MCF7, MCF-7, 72 hours
Procedure: as §1, §2, §3, §4, §5, §6

MDA-MB-231 = test: CellTiter-Glo IG50, Example 8, MDA-MB-231; format: cell-based; settings: Homo sapiens, MDA-MB-231, 72 hours
Procedure: as §1, §2, §3, §4, §5, §6

T47D = test: CellTiter-Glo IG50, Example 8, T47D; format: cell-based; settings: Homo sapiens, 72 hours
Procedure: as §1, §2, §3, §4, §5, §6

c-Rel protein = target: T1, c-Rel protein (Homo sapiens, UniProt Q04864); test: Electrophoretic Mobility Shift Assay (EMSA), c-Rel binding to CD28RE oligonucleotide; settings: 10 nM c-Rel protein
T1 sequence (Q04864 1-619): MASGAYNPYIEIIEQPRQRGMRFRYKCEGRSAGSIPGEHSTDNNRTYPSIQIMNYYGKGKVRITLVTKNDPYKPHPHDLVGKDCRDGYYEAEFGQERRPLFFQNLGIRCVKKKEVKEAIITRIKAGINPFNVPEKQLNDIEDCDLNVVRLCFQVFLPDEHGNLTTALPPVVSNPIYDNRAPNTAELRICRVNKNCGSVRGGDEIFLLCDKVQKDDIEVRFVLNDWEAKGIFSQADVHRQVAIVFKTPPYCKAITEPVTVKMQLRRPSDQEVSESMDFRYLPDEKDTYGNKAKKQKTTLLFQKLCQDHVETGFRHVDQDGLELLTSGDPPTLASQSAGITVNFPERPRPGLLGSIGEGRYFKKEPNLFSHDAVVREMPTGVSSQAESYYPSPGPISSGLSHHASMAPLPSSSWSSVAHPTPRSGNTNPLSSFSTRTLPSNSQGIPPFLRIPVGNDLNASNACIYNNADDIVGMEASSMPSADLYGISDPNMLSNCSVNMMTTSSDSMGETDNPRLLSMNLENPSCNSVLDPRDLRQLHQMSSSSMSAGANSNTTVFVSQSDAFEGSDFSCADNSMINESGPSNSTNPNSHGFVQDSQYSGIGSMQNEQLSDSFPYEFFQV
Procedure: DNA binding reaction (20 μL) was carried out in 1×DNA Binding Buffer (10 mM Tris, 40 mM NaCl, 1 mM EDTA, 4% glycerol) with 10 nM c-Rel protein and 0.5 ng phosphor-labeled CD28RE oligonucleotide for 10 minutes at room temperature in 96-well plates. Test compounds, in serial dilutions, were added into each well, and further incubated for 15 minutes before loading onto native 5% polyacrylamide gel. Electrophoresis proceeded for 2.5 hours at 160V. Radioactive signals were quantified using Phospho-Imager. IC50 of compounds of example 1 to 75 were determined by quantifying the intensity of Rel/NF-κB inhibition in EMSA using phospho-imager. An example of EMSA data of the present invention is shown for compound 6 in FIG. 2.

| IC50 (HCT116) [µM] | IC50 (HT-29) [µM] | IC50 (LoVo) [µM] | IC50 (AGS) [µM] | IC50 (MKN45) [µM] | IC50 (HepG2 [1]) [µM] | IC50 (Hep3B [2]) [µM] | IC50 (PLC/PRF/5 [3]) [µM] | IC50 (HUH7) [µM] | IC50 (JHH5) [µM] | IC50 (SNU878) [µM] | IC50 (PANC-1) [µM] | IC50 (MIAPACA-2) [µM] | IC50 (HepG2 [5]) [µM] | IC50 (Hep3B [6]) [µM] | IC50 (MCF-7) [µM] | Compound | IC50 (KATO III) [µM] | IC50 (PBMC) [µM] | IC50 (Capan-1) [µM] | IC50 (PLC/PRF/5 [4]) [µM] | also measured |
| --- | --- | --- | --- | --- | --- | --- | --- | --- | --- | --- | --- | --- | --- | --- | --- | --- | --- | --- | --- | --- | --- |
| 5.2 | 15.9 | 27 | 31.9 | 4.72 | – | – | – | – | – | – | – | – | – | – | – | O=c1[nH]cc(F)c(=O)[nH]1 [5-FU, 5-fluorouracil, reference compound] | > 64 | – | – | – | – |
| – | – | – | – | – | > 16 | 3.26 | > 16 | 5.4 | > 16 | > 16 | – | – | – | – | – | CCCCCCOc1cc2oc3nc(=O)[nH]c(=O)c-3cc2cc1F [IT-835] | – | 0.985 | – | – | – |
| > 16 | > 16 | > 16 | > 16 | > 16 | – | – | – | – | – | – | > 16 | 17.8 | > 16 | 3.45 | > 16 | COCCCCOc1ccc2cc3c(=O)[nH]c(=O)nc-3oc2c1Cl [IT-878] | > 16 | – | > 16 | > 16 | IC50 (MDA-MB-231): > 16 µM; IC50 (T47D): > 16 µM |
| – | – | – | – | – | > 16 | > 16 | > 16 | > 16 | 8.15 | 9.15 | – | – | – | – | – | O=C(O)CCCCCOc1ccc2cc3c(=O)[nH]c(=O)nc-3oc2c1Cl [IT-855] | – | > 16 | – | – | – |
| 9.4 | 6.61 | 2.89 | 4.44 | > 16 | 4.53 | 3.6 | > 16 | 5.16 | 13.3 | > 16 | 5.54 | 10.2 | 3.94 | 1.42 | 6.81 | CCCCCOc1ccc2cc3c(=O)[nH]c(=O)nc-3oc2c1Cl [IT-843] | > 16 | 1.09 | > 16 | > 16 | IC50 (MDA-MB-231): 2.68 µM; IC50 (T47D): 4.96 µM |
| – | – | – | – | – | – | – | – | – | – | – | – | – | – | – | – | CC(C)COc1ccc2cc3c(=O)[nH]c(=O)nc-3oc2c1 [compound 23, 8-isobutoxy-2H-chromeno[2,3-d]pyrimidine-2,4(3H)-dione] | – | – | – | – | IC50 (c-Rel protein): < 1 µM |
